Experimental data: PubChem BioAssay AID248 (DTP/NCI, 2004)
Several values for one entry are separate records, joined by “and”; a condition that tells them apart may be missing. Identical values can stand only once. Toxic doses and inconclusive results are not listed.

Tested on: L1210 leukemia ip in BDF1 mice, survival T/C
Assay: NCI In Vivo Anticancer Drug Screen. Data for tumor model L1210 Leukemia (intraperitoneal) in B6D2F1 (BDF1) mice
Conditions: endpoint: mean survival time, higher = longer survival
Outline: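 In this screen, tumor-bearing mice given compound are compared to those given vehicle, and their survival values are reported as a treated-to-control quotient.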

[1] = dose: 100.0 mg/kg/injection, schedule: Q01DX009 (ip), vehicle: saline
[2] = dose: 200.0 mg/kg/injection, schedule: Q01DX009 (ip), vehicle: saline
[3] = dose: 400.0 mg/kg/injection, schedule: Q01DX009 (ip), vehicle: saline
[4] = dose: 100.0 mg/kg/injection, schedule: Q01DX009 (ip), vehicle: saline with Tween-80
[5] = dose: 100.0 mg/kg/injection, schedule: Q04DX003 (ip), vehicle: saline with Tween-80
[6] = dose: 200.0 mg/kg/injection, schedule: Q01DX009 (ip), vehicle: saline with Tween-80
[7] = dose: 200.0 mg/kg/injection, schedule: Q04DX003 (ip), vehicle: saline with Tween-80
[8] = dose: 400.0 mg/kg/injection, schedule: Q01DX009 (ip), vehicle: saline with Tween-80
[9] = dose: 400.0 mg/kg/injection, schedule: Q04DX003 (ip), vehicle: saline with Tween-80
[10] = dose: 50.0 mg/kg/injection, schedule: Q01DX009 (ip), vehicle: Klucel (hydroxypropylcellulose) (HPC)
[11] = dose: 50.0 mg/kg/injection, schedule: Q01DX009 (ip), vehicle: saline with Tween-80

CCCCC(C=NCC(CCCC)(CCN(C)C)c1cccc2ccccc12)(CCN(C)C)c1cccc2ccccc12 (stereo not drawn)
T/C (dose: 6.25 mg/kg/injection, schedule: Q04DX002 (ip), vehicle: Klucel (hydroxypropylcellulose) (HPC)): 89 % of control
T/C (dose: 12.5 mg/kg/injection, schedule: Q04DX002 (ip), vehicle: Klucel (hydroxypropylcellulose) (HPC)): 89 % of control
T/C (dose: 25.0 mg/kg/injection, schedule: Q04DX002 (ip), vehicle: Klucel (hydroxypropylcellulose) (HPC)): 92 % of control

CCOC1=C(C)C(=O)C1C (stereo not drawn)
T/C [1]: 111 % of control
T/C [2]: 101 % of control
T/C [3]: 113 % of control

O=[N+]([O-])c1ccc(OCCCBr)c(Cl)c1
T/C [1]: 103 % of control
T/C [2]: 108 % of control
T/C [3]: 120 % of control

O=C(O)c1ccccc1C(=O)NC(Cc1cnc[nH]1)C(=O)O (stereo not drawn)
T/C [4]: 96 % of control
T/C [5]: 102 % of control
T/C [6]: 100 % of control
T/C [7]: 102 % of control
T/C [8]: 94 % of control
T/C [9]: 91 % of control

CC(O)(c1ccncc1)c1cc2ccccc2n1S(=O)(=O)c1ccccc1 (stereo not drawn)
T/C (dose: 100.0 mg/kg/injection, schedule: Q04DX002 (ip), vehicle: Klucel (hydroxypropylcellulose) (HPC)): 95 % of control
T/C (dose: 200.0 mg/kg/injection, schedule: Q04DX002 (ip), vehicle: Klucel (hydroxypropylcellulose) (HPC)): 87 % of control

N#CCc1c(Cl)ccc(Cl)c1Cl
T/C (dose: 12.0 mg/kg/injection, schedule: Q01DX009 (ip), vehicle: Klucel (hydroxypropylcellulose) (HPC)): 97 % of control
T/C (dose: 25.0 mg/kg/injection, schedule: Q01DX009 (ip), vehicle: Klucel (hydroxypropylcellulose) (HPC)): 100 % of control
T/C (dose: 25.0 mg/kg/injection, schedule: Q04DX003 (ip), vehicle: Klucel (hydroxypropylcellulose) (HPC)): 97 % of control
T/C [10]: 94 % of control
T/C (dose: 50.0 mg/kg/injection, schedule: Q04DX003 (ip), vehicle: Klucel (hydroxypropylcellulose) (HPC)): 98 % of control
T/C (dose: 100.0 mg/kg/injection, schedule: Q04DX003 (ip), vehicle: Klucel (hydroxypropylcellulose) (HPC)): 101 % of control and 87 % of control

CCC(CS(=O)(=O)O)[N+](=O)[O-] (stereo not drawn)
T/C (dose: 100.0 mg/kg/injection, schedule: Q04DX002 (ip), vehicle: saline): 96 % of control
T/C (dose: 200.0 mg/kg/injection, schedule: Q04DX002 (ip), vehicle: saline): 96 % of control
T/C (dose: 400.0 mg/kg/injection, schedule: Q04DX002 (ip), vehicle: saline): 107 % of control

Cn1c2ccccc2c(=O)c2cc([N+](=O)[O-])ccc21
T/C [5]: 93 % of control
T/C [7]: 97 % of control
T/C [9]: 93 % of control

Cc1cc(NC(=O)Nc2ccc(C3=NCCCN3)cc2)ccc1NC(=O)Nc1ccc(C2=NCCCN2)cc1
T/C (dose: 3.0 mg/kg/injection, schedule: Q01DX Z (ip), vehicle: water): 113 % of control
T/C (dose: 4.5 mg/kg/injection, schedule: Q01DX Z (ip), vehicle: water): 119 % of control
T/C (dose: 6.0 mg/kg/injection, schedule: Q01DX Z (ip), vehicle: water): 109 % of control
T/C (dose: 7.5 mg/kg/injection, schedule: Q01DX Z (ip), vehicle: water): 167 % of control
T/C (dose: 10.0 mg/kg/injection, schedule: Q01DX Z (ip), vehicle: water): 220 % of control
T/C (dose: 25.0 mg/kg/injection, schedule: Q01DX Z (oral), vehicle: water): 109 % of control
T/C (dose: 50.0 mg/kg/injection, schedule: Q01DX Z (oral), vehicle: water): 103 % of control
T/C [1]: 163 % of control
T/C (dose: 100.0 mg/kg/injection, schedule: Q01DX Z (oral), vehicle: water): 105 % of control
T/C (dose: 200.0 mg/kg/injection, schedule: Q01DX Z (oral), vehicle: water): 109 % of control

CCCCCCC1CC1
T/C (dose: 50.0 mg/kg/injection, schedule: Q01DX009 (ip), vehicle: saline): 94 % of control
T/C [1]: 102 % of control
T/C [2]: 102 % of control

O=C(Nc1c[nH]c(=O)[nH]c1=O)C(Cl)Cl
T/C (dose: 16.0 mg/kg/injection, schedule: Q01DX Z (ip), vehicle: methylcellulose (MC)): 91 % of control
T/C (dose: 31.0 mg/kg/injection, schedule: Q01DX Z (ip), vehicle: methylcellulose (MC)): 95 % of control
T/C [10]: 103 % of control
T/C (dose: 62.0 mg/kg/injection, schedule: Q01DX Z (ip), vehicle: methylcellulose (MC)): 93 % of control
T/C (dose: 100.0 mg/kg/injection, schedule: Q01DX009 (ip), vehicle: Klucel (hydroxypropylcellulose) (HPC)): 104 % of control
T/C (dose: 125.0 mg/kg/injection, schedule: Q01DX Z (ip), vehicle: methylcellulose (MC)): 90 % of control
T/C (dose: 200.0 mg/kg/injection, schedule: Q01DX009 (ip), vehicle: Klucel (hydroxypropylcellulose) (HPC)): 117 % of control

Cc1cccc(C2=N/C(=C\c3cccc4ccccc34)C(=O)O2)c1
T/C [11]: 102 % of control
T/C [4]: 91 % of control
T/C [6]: 91 % of control

COc1cc(C=O)cc(C=O)c1O
T/C (dose: 25.0 mg/kg/injection, schedule: Q01DX001 (ip), vehicle: saline with Tween-80): 96 % of control
T/C (dose: 50.0 mg/kg/injection, schedule: Q01DX001 (ip), vehicle: saline with Tween-80): 104 % of control
T/C (dose: 100.0 mg/kg/injection, schedule: Q01DX001 (ip), vehicle: saline with Tween-80): 90 % of control

CCCC(=O)OC1CC(C)CCC1C(C)C (stereo not drawn)
T/C (dose: 25.6 mg/kg/injection, schedule: Q04DX002 (ip), vehicle: saline with Tween-80): 96 % of control
T/C (dose: 64.0 mg/kg/injection, schedule: Q04DX002 (ip), vehicle: saline with Tween-80): 96 % of control
T/C [4]: 90 % of control
T/C [5]: 88 % of control
T/C (dose: 160.0 mg/kg/injection, schedule: Q04DX002 (ip), vehicle: saline with Tween-80): 92 % of control
T/C [6]: 94 % of control
T/C [7]: 94 % of control
T/C [8]: 92 % of control
T/C (dose: 400.0 mg/kg/injection, schedule: Q04DX002 (ip), vehicle: saline with Tween-80): 96 % of control
T/C [9]: 100 % of control

O=C(CC(=O)c1ccco1)c1ccccc1
T/C (dose: 100.0 mg/kg/injection, schedule: Q01DX001 (ip), vehicle: saline): 102 % of control
T/C (dose: 200.0 mg/kg/injection, schedule: Q01DX001 (ip), vehicle: saline): 100 % of control
T/C (dose: 400.0 mg/kg/injection, schedule: Q01DX001 (ip), vehicle: saline): 96 % of control

c1ccc(CN2CCN(Cc3ccccc3)C2c2ccccc2)cc1
T/C (dose: 25.0 mg/kg/injection, schedule: Q01DX009 (ip), vehicle: saline with Tween-80): 97 % of control
T/C [11]: 103 % of control
T/C [4]: 106 % of control
T/C [6]: 105 % of control
T/C [8]: 106 % of control

Cc1cc(C)c2cc(C=O)cc-2c(C)c1
T/C [5]: 103 % of control
T/C [7]: 94 % of control
T/C [9]: 93 % of control

CCCCSCC(N)C(=O)OC (stereo not drawn)
T/C [1]: 96 % of control
T/C (dose: 100.0 mg/kg/injection, schedule: Q04DX003 (ip), vehicle: saline): 106 % of control
T/C [2]: 101 % of control
T/C (dose: 200.0 mg/kg/injection, schedule: Q04DX003 (ip), vehicle: saline): 100 % of control
T/C [3]: 112 % of control
T/C (dose: 400.0 mg/kg/injection, schedule: Q04DX003 (ip), vehicle: saline): 97 % of control

COC(=O)c1ccc2ccccc2n1
T/C (dose: 37.5 mg/kg/injection, schedule: Q04DX003 (ip), vehicle: saline): 112 % of control
T/C (dose: 75.0 mg/kg/injection, schedule: Q01DX001 (ip), vehicle: saline): 112 % of control
T/C (dose: 75.0 mg/kg/injection, schedule: Q04DX003 (ip), vehicle: saline): 93 % of control
T/C (dose: 150.0 mg/kg/injection, schedule: Q01DX001 (ip), vehicle: saline): 86 % of control
T/C (dose: 150.0 mg/kg/injection, schedule: Q04DX003 (ip), vehicle: saline): 93 % of control

O=C(/C=C\c1ccc(/C=C/C(=O)Nc2cccc(C3=NCCCN3)c2)cc1)Nc1cccc(C2=NCCCN2)c1
T/C (dose: 0.62 mg/kg/injection, schedule: Q01DX Z (ip), vehicle: carboxymethylcellulose (CMC)): 117 % of control
T/C (dose: 5.0 mg/kg/injection, schedule: Q01DX Z (ip), vehicle: carboxymethylcellulose (CMC)): 225 % of control
T/C (dose: 12.5 mg/kg/injection, schedule: Q01DX Z (oral), vehicle: carboxymethylcellulose (CMC)): 103 % of control
T/C (dose: 25.0 mg/kg/injection, schedule: Q01DX Z (oral), vehicle: carboxymethylcellulose (CMC)): 103 % of control
T/C (dose: 50.0 mg/kg/injection, schedule: Q01DX Z (oral), vehicle: carboxymethylcellulose (CMC)): 102 % of control
T/C (dose: 100.0 mg/kg/injection, schedule: Q01DX Z (oral), vehicle: carboxymethylcellulose (CMC)): 97 % of control
